Test results: patent US4624953A, “1-piperazinocarboxylates and pharmaceutical compositions containing them” (priority 1981, dated 1986)
Read-outs that look alike come from different tables or passages of the source.

What was measured:
[1] = system: isolation-induced aggressive behaviour; details: background statement on clinically used drugs; cited from earlier work
[2] = system: conditioned avoidance response; test: Conditioned avoidance response (CAR), shuttle box; type: in vivo, female rats; details: Rattus norvegicus, sc
Procedure: The effect of the test compounds on CAR was evaluated in a shuttle box, manufactured by Ugo Basile, Italy. The female rats, weighing 150 g, were trained to avoid an electric shock (unconditioned stimulus--US) by escaping from one compartment to the other when the light from a 15 W lamp switched on (conditions stimulus--CS). When they responded to the CS, a conditioned response (CR) was considered to have been elicited.
Rats showing a stable CR of more than 80% after a three weeks' training program were used in the experiments. Groups of six rats were subcutaneously administered with various doses of the test compounds. 11/2 and 4 hours after the administration each rat was placed in the experimental box and the effect on CR was evaluated.
The mechanisms regulating conditioned responses are very complex. Both catecholaminergic and hormonal factors are of importance. [drawing 13]

[3] = system: isolation-induced aggressive behaviour; test: Isolation-induced aggressive behaviour test; type: in vivo, male NMRI mice; details: Mus musculus, sc, read-out: ED50, isolation induced aggressive behaviour
From the text: Male mice subjected to prolonged isolation develop aggressive behaviour against each other when paired (Yen, C. Y. et al., Arch. Int. Pharmacodyn. 123, 179, (1959); Valzelli, L., Adv. Pharmacol. 5, 79 (1967)). […] The clinical correlation of this test indicates tranquillizing and anxiolytic activities as well as antiaggressive properties as such (Duncan, R. L. et al., J. Med. Chem. 13, 1 (1970)).
This type of aggression is interesting because it is known that this kind of emotional behaviour might be located in limbic structures in the brain (MacLean, P. D., Psychosom. Med. 11, 338 (1949)).
Every week male NMRI mice, weighing 20-22 g, were isolated in Makrolon cages for three weeks with diet and water ad libitum. A piece of cardboard was placed between the cages to prevent visual contact.
To test aggressiveness the mice were paired in a neutral area, a beaker (14 cm high and diameter 14 cm). A pair is considered aggressive if both the animals show clear signs of fighting within 5 min. This fighting is characterized by biting and vocalization. As soon as fighting is seen, the mice are separated and brought to their home cage. […] Animals showing no aggression are discarded. […] The test substance is administered s.c. (0.2-0.4 ml/20 g). The mice are paired 0.5 h after the injection for trials of 5 min. duration.
The ED50 -value (mg/kg) reported is the dose inhibiting aggressive behaviour among 50 percent of the pairs 0.5 hour after drug administration.

[4] = 1.5 hr after administration, dose inhibiting CR in 50% of the animals, read-out: ED50, conditioned avoidance behaviour, 1.5 hr
[5] = 4 hr after administration, dose inhibiting CR in 50% of the animals, read-out: ED50, conditioned avoidance behaviour, 4 hr
[6] = 0.5 h after administration, dose inhibiting aggressive behaviour among 50 percent of the pairs

SMILES	ED50 [2, 4] [mg/kg]	ED50 [2, 5] [mg/kg]	ED50 [3, 6] [mg/kg]	other results
CN1C(=O)CN=C(c2ccccc2)c2cc(Cl)ccc21 [Diazepam]	–	–	–	activity on isolation-induced aggressive behaviour (in words) [1]: active on this kind of aggressive behaviour
COC(=O)N1CCN(CCCC(c2ccc(F)cc2)c2ccc(F)cc2)CC1.Cl [I (a), 1-Carbomethoxy-4-[4,4-bis(p-fluorophenyl)butyl]piperazine hydrochloride]	45	12	6	–
CN(C)CCCN1c2ccccc2Sc2ccc(Cl)cc21 [Chlorpromazine]	–	–	–	ED50 ([2]; 1.5 h, read-out: ED50, conditioned avoidance behaviour, 1.5 hr): 3.5 mg/kg; ED50 ([2]; 4 h, read-out: ED50, conditioned avoidance behaviour, 4 hr): 5.2 mg/kg; ED50 ([3]; 0.5 h): 1.4 mg/kg
CN(C)CCC=C1c2ccccc2CCc2ccccc21 [Amitriptyline]	–	–	5	–
CSc1ccc2c(c1)N(CCC1CCCCN1C)c1ccccc1S2 (centres unmarked) [Thioridazine]	41	40	5	–
